The text below walks through data of US10913736B2 (UNIVERSITY OF WASHINGTON, priority 2014, dated 2021).

The test system of one experiment is T. brucei. Kind of experiment: Growth inhibition assay of T. brucei cell cultures (Alamar Blue, 48 h). Type of experiment: cell-based. The following applies: Trypanosoma brucei; read-out: B) T. brucei EC50. (In general: Alamar Blue is a resazurin reagent that responds to reducing activity.)
Another experiment deals with MetRS (T. brucei) (Trypanosoma brucei brucei, UniProt Q38C91). As to the kind of experiment: MetRS (T. brucei) ATP depletion assay using Kinase-Glo. In kind it is biochemical.
Chain of MetRS (T. brucei) (Q38C91 entry or part of it): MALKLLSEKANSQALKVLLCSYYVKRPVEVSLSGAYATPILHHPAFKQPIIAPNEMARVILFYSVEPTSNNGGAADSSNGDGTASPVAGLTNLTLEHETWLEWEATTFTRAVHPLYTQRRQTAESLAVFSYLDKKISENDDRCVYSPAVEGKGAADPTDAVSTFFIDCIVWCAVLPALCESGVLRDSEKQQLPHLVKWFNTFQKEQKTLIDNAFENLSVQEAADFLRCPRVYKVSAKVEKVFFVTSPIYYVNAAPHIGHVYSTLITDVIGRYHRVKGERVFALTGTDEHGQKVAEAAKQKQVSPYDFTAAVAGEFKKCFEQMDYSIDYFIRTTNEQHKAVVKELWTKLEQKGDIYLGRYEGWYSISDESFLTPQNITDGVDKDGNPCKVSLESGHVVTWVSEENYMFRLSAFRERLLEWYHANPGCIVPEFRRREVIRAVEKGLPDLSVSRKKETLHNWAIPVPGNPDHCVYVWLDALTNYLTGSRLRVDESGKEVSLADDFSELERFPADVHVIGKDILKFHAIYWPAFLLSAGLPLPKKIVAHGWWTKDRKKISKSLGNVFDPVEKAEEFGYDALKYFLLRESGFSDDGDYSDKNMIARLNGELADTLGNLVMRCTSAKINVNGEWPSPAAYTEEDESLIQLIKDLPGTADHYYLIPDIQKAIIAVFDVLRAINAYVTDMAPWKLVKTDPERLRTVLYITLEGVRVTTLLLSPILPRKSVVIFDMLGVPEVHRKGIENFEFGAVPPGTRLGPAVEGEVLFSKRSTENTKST

The EC50 is the concentration needed to bring the measured effect to its halfway point. One may read the IC50 as the concentration at which inhibition is half-maximal. Higher therefore signals weaker potency in that assay.

For the compound `Fc1ccc2[nH]c(CCCNCc3cc(Cl)cc(Cl)c3)nc2n1` [Compound 1858, N-(3,5-dichlorobenzyl)-3-(5-fluoro-1H-imidazo[4,5-b]pyridin-2-yl)propan-1-amine], the EC50 in the experiment with T. brucei amounted to 1.89 µM. The compound also had an IC50 against MetRS (T. brucei) of 0.34 µM.

`CC(=O)N(Cc1cc(Cl)cc(Cl)c1)[C@@H]1CCC[C@H](c2nc3nc(Cl)ccc3[nH]2)C1` [Compound 1859, N-((1R,3S)-3-(5-chloro-1H-imidazo[4,5-b]pyridin-2-yl)cyclohexyl)-N-(3,5-dichlorobenzyl)acetamide]: the EC50 with T. brucei was > 20 µM. For the same compound, the IC50 at MetRS (T. brucei) came out at 1.43 µM.

In the case of `CC(=O)N(Cc1cc(Cl)cc(Cl)c1)C1CCCC(c2nc3cc(F)ccc3[nH]2)C1` (stereo not drawn) [Compound 1860, N-(3,5-dichlorobenzyl)-N-(3-(5-fluoro-1H-benzo[d]imidazol-2-yl)cyclohexyl)acetamide], the EC50 in the experiment on T. brucei was found to be 8.57 µM. In addition, half-maximal inhibition against MetRS (T. brucei) (IC50) was put at 6.9 µM.

Take `CC(=O)N(Cc1cc(Cl)cc(Cl)c1)C1CCCC(c2nc3cc(Cl)ccc3[nH]2)C1` (stereo not drawn) [Compound 1861, N-(3-(5-chloro-1H-benzo[d]imidazol-2-yl)cyclohexyl)-N-(3,5-dichlorobenzyl)acetamide]: in the experiment on T. brucei, the EC50 stood at 4.44 µM. For the same compound, half-maximal inhibition at MetRS (T. brucei) (IC50) was put at 1.47 µM.

Consider `Clc1cc(Cl)cc(NCC2CCCN(c3nc4nc(Cl)c(Br)cc4[nH]3)C2)c1` (stereo not drawn) [Compound 1863, N-((1-(6-bromo-5-chloro-1H-imidazo[4,5-b]pyridin-2-yl)piperidin-3-yl)methyl)-3,5-dichloroaniline], for which the EC50 in the experiment with T. brucei amounted to 3.29 µM. Besides, the IC50 against MetRS (T. brucei) was > 10 µM.

`Clc1cc(Cl)cc(CNC2CN(c3nc4nc(Cl)ccc4[nH]3)C2)c1` [Compound 1864, 1-{5-chloro-1H-imidazo[4,5-b]pyridin-2-yl}-N-[(3,5-dichlorophenyl)methyl]azetidin-3-amine]: in the experiment with T. brucei, the EC50 was > 20 µM. Also, the IC50 against MetRS (T. brucei) came out at 2.17 µM.

For the compound `Clc1cc(Cl)cc(CNC2CN(c3nc4nc(Cl)c(Br)cc4[nH]3)C2)c1` [Compound 1865, 1-{6-bromo-5-chloro-1H-imidazo[4,5-b]pyridin-2-yl}-N-[(3,5-dichlorophenyl)methyl]azetidin-3-amine], the EC50 in the experiment on T. brucei amounted to 6.63 µM. Moreover, the IC50 against MetRS (T. brucei) is > 10 µM.

As for `Clc1cc(Cl)cc(CN2CCN(c3nc4nc(Cl)ccc4[nH]3)CC2)c1` [Compound 1866, 5-chloro-2-(4-(3,5-dichlorobenzyl)piperazin-1-yl)-1H-imidazo[4,5-b]pyridine], the EC50 in the experiment with T. brucei was > 20 µM. The IC50 on MetRS (T. brucei) is > 10 µM.

With `Clc1cc(Cl)cc(CNC2CCN(c3nc4nc(Cl)ccc4[nH]3)CC2)c1` [Compound 1867, 1-(5-chloro-1H-imidazo[4,5-b]pyridin-2-yl)-N-(3,5-dichlorobenzyl)piperidin-4-amine], the EC50 with T. brucei is > 20 µM. In addition, the IC50 against MetRS (T. brucei) is 4.97 µM.

Take `Clc1cc(Cl)cc(CN2CCC[C@H](c3nc4nc(Cl)ccc4[nH]3)C2)c1` [Compound 1868, (S)-5-chloro-2-(1-(3,5-dichlorobenzyl)piperidin-3-yl)-1H-imidazo[4,5-b]pyridine]: in the experiment on T. brucei, the EC50 is 1.08 µM. On MetRS (T. brucei), this compound came in with an IC50 of 0.077 µM.

Consider `Clc1ccc(CN2CCC[C@H](c3nc4nc(Cl)ccc4[nH]3)C2)c(Cl)c1` [Compound 1869, (S)-5-chloro-2-(1-(2,4-dichlorobenzyl)piperidin-3-yl)-1H-imidazo[4,5-b]pyridine], for which the EC50 in the experiment on T. brucei was found to be 1.7 µM. For the same compound, the IC50 against MetRS (T. brucei) worked out at 0.052 µM.

Take `COc1cc(CN2CCC[C@H](c3nc4nc(Cl)ccc4[nH]3)C2)cc(OC)c1` [Compound 1872, (S)-5-chloro-2-(1-(3,5-dimethoxybenzyl)piperidin-3-yl)-1H-imidazo[4,5-b]pyridine]: in the experiment on T. brucei, the EC50 was determined as 8.34 µM. Moreover, the IC50 on MetRS (T. brucei) is > 10 µM.

As for `O=C(Cc1cc(Cl)cc(Cl)c1)NCc1nc2ccc(Br)cc2[nH]1` [Compound 1873, N-[(6-bromo-1H-1,3-benzodiazol-2-yl)methyl]-2-(3,5-dichlorophenyl)acetamide], the EC50 in the experiment with T. brucei stood at 5.5 µM. Moreover, at MetRS (T. brucei), inhibition was half-maximal at 0.098 µM (IC50).

`O=C(Cc1ccc(Cl)cc1Cl)NCc1nc2ccc(Br)cc2[nH]1` [Compound 1874, N-[(6-bromo-1H-1,3-benzodiazol-2-yl)methyl]-2-(2,4-dichlorophenyl)acetamide]: in the experiment with T. brucei, the EC50 came out at 3.65 µM. The compound further showed an IC50 at MetRS (T. brucei) of 0.051 µM.

For the compound `O=C(Cc1ccc(Cl)cc1Cl)NCc1nc2ccc(Cl)nc2[nH]1` [Compound 1876, N-({5-chloro-3H-imidazo[4,5-b]pyridin-2-yl}methyl)-2-(2,4-dichlorophenyl)acetamide], the EC50 in the experiment with T. brucei is > 20 µM. The compound further registered an IC50 against MetRS (T. brucei) of 0.375 µM.

As for `O=C(Cc1cc(Cl)cc(Cl)c1)NCc1nc2ncc(Cl)cc2[nH]1` [Compound 1877, N-({6-chloro-1H-imidazo[4,5-b]pyridin-2-yl}methyl)-2-(3,5-dichlorophenyl)acetamide], the EC50 with T. brucei amounted to 8.68 µM. For the same compound, the IC50 against MetRS (T. brucei) amounted to 0.191 µM.

For `O=C(Cc1ccc(Cl)cc1Cl)NCc1nc2ncc(Cl)cc2[nH]1` [Compound 1878, N-({6-chloro-1H-imidazo[4,5-b]pyridin-2-yl}methyl)-2-(2,4-dichlorophenyl)acetamide], in the experiment with T. brucei, the EC50 is 7.52 µM. At MetRS (T. brucei), this compound showed an IC50 of 0.195 µM.

For the compound `O=C(Cc1cc(Cl)cc(Cl)c1)NCc1nc2cnc(Cl)cc2[nH]1` [Compound 1879, N-({6-chloro-1H-imidazo[4,5-c]pyridin-2-yl}methyl)-2-(3,5-dichlorophenyl)acetamide], the EC50 in the experiment on T. brucei is 11.2 µM. The compound also returned an IC50 on MetRS (T. brucei) of 0.416 µM.

Turning to `O=C(Cc1ccc(Cl)cc1Cl)NCc1nc2cnc(Cl)cc2[nH]1` [Compound 1880, N-({6-chloro-1H-imidazo[4,5-c]pyridin-2-yl}methyl)-2-(2,4-dichlorophenyl)acetamide], the EC50 in the experiment with T. brucei is 8.4 µM. Further, at MetRS (T. brucei), half-maximal inhibition (IC50) required 0.214 µM.

For the compound `COc1ccc(Oc2nc(O)nc(NCc3nc4ccc(F)nc4[nH]3)n2)c(Cl)c1` [Compound 1885, 4-(2-chloro-4-methoxyphenoxy)-6-[({5-fluoro-3H-imidazo[4,5-b]pyridin-2-yl}methyl)amino]-1,3,5-triazin-2-ol], the EC50 in the experiment on T. brucei came to 5.87 µM. Moreover, the IC50 against MetRS (T. brucei) was found to be 1.51 µM.

Regarding `CC(=O)N(Cc1cc(Cl)cc(Cl)c1)C1CCCN(c2nc3nc(F)ccc3[nH]2)C1` (stereo not drawn) [Compound 1887, N-(3,5-dichlorobenzyl)-N-(1-(5-fluoro-1H-imidazo[4,5-b]pyridin-2-yl)piperidin-3-yl)acetamide], in the experiment on T. brucei, the EC50 is > 20 µM. The same compound came in with an IC50 against MetRS (T. brucei) of 6.66 µM.

For the compound `O=C(NCc1nc2ccc(Cl)nc2[nH]1)Nc1cc(Cl)cc(Cl)c1` [Compound 1890, 1-((5-chloro-1H-imidazo[4,5-b]pyridin-2-yl)methyl)-3-(3,5-dichlorophenyl)urea], the EC50 with T. brucei was found to be 6.22 µM. Also, the IC50 against MetRS (T. brucei) came out at 0.078 µM.

Turning to `O=C(NCc1nc2nc(Cl)ccc2[nH]1)Nc1ccc(Cl)cc1Cl` [Compound 1891, 3-({5-chloro-3H-imidazo[4,5-b]pyridin-2-yl}methyl)-1-(2,4-dichlorophenyl)urea], in the experiment with T. brucei, the EC50 was > 20 µM. Further, half-maximal inhibition at MetRS (T. brucei) (IC50) was put at 3.9 µM.

Take `Clc1ccc(CCNCc2nc3nc(Cl)ccc3[nH]2)c(Cl)c1` [Compound 1892, ({5-chloro-3H-imidazo[4,5-b]pyridin-2-yl}methyl)[2-(2,4-dichlorophenyl)ethyl]amine]: in the experiment on T. brucei, the EC50 is 1.55 µM. At MetRS (T. brucei), the IC50 was determined as 0.033 µM.
